From patent US20250262279A1, “DOSE REGIMEN FOR LONG-ACTING GLP1/GLUCAGON RECEPTOR AGONISTS” (Boehringer Ingelheim International GmbH, priority 2021, published 2025)
Read-outs that look alike come from different tables or passages of the source.

Experiment: Example 1: plasma pharmacokinetics
Assay type: in vivo
Details: human, sc; for Cmax: read-out: Cmax (gMean)

## CC[C@H](C)[C@H](NC(=O)[C@H](Cc1ccccc1)NC(=O)[C@H](CC(=O)O)NC(=O)[C@H](CCCCN)NC(=O)[C@H](C)NC(=O)[C@H](C)NC(=O)[C@H](CCCNC(=N)N)NC(=O)[C@H](CCC(=O)O)NC(=O)[C@H](CC(=O)O)NC(=O)[C@H](CC(C)C)NC(=O)[C@H](Cc1ccc(O)cc1)NC(=O)[C@H](CCCCN)NC(=O)[C@H](CO)NC(=O)[C@H](Cc1ccc(O)cc1)NC(=O)[C@H](CC(=O)O)NC(=O)[C@H](CO)NC(=O)[C@@H](NC(=O)[C@H](Cc1ccccc1)NC(=O)[C@@H](NC(=O)CNC(=O)[C@H](CCC(N)=O)NC(=O)C1(NC(=O)[C@@H](N)Cc2c[nH]cn2)CCC1)[C@@H](C)O)[C@@H](C)O)C(=O)N[C@@H](CCCCNC(=O)CNC(=O)CNC(=O)[C@H](CO)NC(=O)CNC(=O)[C@H](CO)NC(=O)CNC(=O)CC[C@H](NC(=O)CCCCCCCCCCCCCCCCC(=O)O)C(=O)O)C(=O)N[C@@H](Cc1c[nH]c2ccccc12)C(=O)N[C@@H](CC(C)C)C(=O)N[C@@H](CCC(=O)O)C(=O)N[C@@H](CO)C(=O)N[C@@H](C)C(N)=O [Compound I]
0.3 mg, Ex.1 twice weekly scheme, wk 1, 0.3 mg sc, read-out: AUC0-72 (gMean)
  AUC(0-t): 0.342 µM·h
0.3 mg, Ex.1 twice weekly scheme, wk 1, 0.3 mg sc
  Cmax: 5.38 nM
0.3 mg, Ex.1 weekly scheme 1, wk 1, 0.3 mg sc, read-out: AUC0-168 (gMean)
  AUC(0-t): 0.617 µM·h
0.3 mg, Ex.1 weekly scheme 1, wk 1, 0.3 mg sc
  Cmax: 5.08 nM
0.4 mg, Ex.1 weekly scheme 2, wk 1, 0.4 mg sc, read-out: AUC0-168 (gMean)
  AUC(0-t): 0.818 µM·h
0.4 mg, Ex.1 weekly scheme 2, wk 1, 0.4 mg sc
  Cmax: 6.51 nM
0.6 mg, Ex.1 twice weekly scheme, wk 3, 0.6 mg sc, read-out: AUC0-72 (gMean)
  AUC(0-t): 1.2 µM·h
0.6 mg, Ex.1 twice weekly scheme, wk 3, 0.6 mg sc
  Cmax: 20.4 nM
0.6 mg, Ex.1 weekly scheme 1, wk 2, 0.6 mg sc, read-out: AUC0-168 (gMean)
  AUC(0-t): 1.41 µM·h
0.6 mg, Ex.1 weekly scheme 1, wk 2, 0.6 mg sc
  Cmax: 12.3 nM
0.6 mg, Ex.1 weekly scheme 3, wk 1, 0.6 mg sc, read-out: AUC0-168 (gMean)
  AUC(0-t): 1.24 µM·h
0.6 mg, Ex.1 weekly scheme 3, wk 1, 0.6 mg sc
  Cmax: 10.7 nM
0.6 mg, Ex.1 weekly scheme 3, wk 2, 0.6 mg sc, read-out: AUC0-168 (gMean)
  AUC(0-t): 1.71 µM·h
0.6 mg, Ex.1 weekly scheme 3, wk 2, 0.6 mg sc
  Cmax: 14.4 nM
0.6 mg, Ex.1 weekly scheme 4, wk 1, 0.6 mg sc, read-out: AUC0-168 (gMean)
  AUC(0-t): 1.57 µM·h
0.6 mg, Ex.1 weekly scheme 4, wk 1, 0.6 mg sc
  Cmax: 15.7 nM
0.6 mg, Ex.1 weekly scheme 4, wk 3, 0.6 mg sc, read-out: AUC0-168 (gMean)
  AUC(0-t): 2.49 µM·h
0.6 mg, Ex.1 weekly scheme 4, wk 3, 0.6 mg sc
  Cmax: 22.3 nM
0.6 mg, Ex.1 weekly scheme 5, wk 1, 0.6 mg sc, read-out: AUC0-168 (gMean)
  AUC(0-t): 1.44 µM·h
0.6 mg, Ex.1 weekly scheme 5, wk 1, 0.6 mg sc
  Cmax: 13.2 nM
0.8 mg, Ex.1 weekly scheme 2, wk 2, 0.8 mg sc, read-out: AUC0-168 (gMean)
  AUC(0-t): 2.04 µM·h
0.8 mg, Ex.1 weekly scheme 2, wk 2, 0.8 mg sc
  Cmax: 16.9 nM
0.9 mg, Ex.1 twice weekly scheme, wk 5, 0.9 mg sc, read-out: AUC0-72 (gMean)
  AUC(0-t): 2.39 µM·h
0.9 mg, Ex.1 twice weekly scheme, wk 5, 0.9 mg sc
  Cmax: 40.8 nM
0.9 mg, Ex.1 twice weekly scheme, wk 6, 0.9 mg sc, read-out: AUC0-72 (gMean)
  AUC(0-t): 2.78 µM·h
0.9 mg, Ex.1 twice weekly scheme, wk 6, 0.9 mg sc
  Cmax: 49.2 nM
0.9 mg, Ex.1 weekly scheme 1, wk 3, 0.9 mg sc, read-out: AUC0-168 (gMean)
  AUC(0-t): 2.48 µM·h
0.9 mg, Ex.1 weekly scheme 1, wk 3, 0.9 mg sc
  Cmax: 20.6 nM
1.2 mg, Ex.1 twice weekly scheme, wk 7, 1.2 mg sc, read-out: AUC0-72 (gMean)
  AUC(0-t): 3.56 µM·h
1.2 mg, Ex.1 twice weekly scheme, wk 7, 1.2 mg sc
  Cmax: 58.8 nM
1.2 mg, Ex.1 weekly scheme 1, wk 4, 1.2 mg sc, read-out: AUC0-168 (gMean)
  AUC(0-t): 3.36 µM·h
1.2 mg, Ex.1 weekly scheme 1, wk 4, 1.2 mg sc
  Cmax: 28.1 nM
1.2 mg, Ex.1 weekly scheme 2, wk 3, 1.2 mg sc, read-out: AUC0-168 (gMean)
  AUC(0-t): 3.56 µM·h
1.2 mg, Ex.1 weekly scheme 2, wk 3, 1.2 mg sc
  Cmax: 31.7 nM
1.2 mg, Ex.1 weekly scheme 3, wk 3, 1.2 mg sc, read-out: AUC0-168 (gMean)
  AUC(0-t): 3.23 µM·h
1.2 mg, Ex.1 weekly scheme 3, wk 3, 1.2 mg sc
  Cmax: 28.1 nM
1.2 mg, Ex.1 weekly scheme 4, wk 5, 1.2 mg sc, read-out: AUC0-168 (gMean)
  AUC(0-t): 3.94 µM·h
1.2 mg, Ex.1 weekly scheme 4, wk 5, 1.2 mg sc
  Cmax: 36 nM
1.2 mg, Ex.1 weekly scheme 4, wk 6, 1.2 mg sc, read-out: AUC0-168 (gMean)
  AUC(0-t): 4.7 µM·h
1.2 mg, Ex.1 weekly scheme 4, wk 6, 1.2 mg sc
  Cmax: 41.9 nM
1.2 mg, Ex.1 weekly scheme 4, wk 7, 1.2 mg sc, read-out: AUC0-168 (gMean)
  AUC(0-t): 5.19 µM·h
1.2 mg, Ex.1 weekly scheme 4, wk 7, 1.2 mg sc
  Cmax: 49 nM
1.2 mg, Ex.1 weekly scheme 5, wk 3, 1.2 mg sc, read-out: AUC0-168 (gMean)
  AUC(0-t): 3.79 µM·h
1.2 mg, Ex.1 weekly scheme 5, wk 3, 1.2 mg sc
  Cmax: 31.5 nM
1.5 mg, Ex.1 twice weekly scheme, wk 9, 1.5 mg sc, read-out: AUC0-72 (gMean)
  AUC(0-t): 5 µM·h
1.5 mg, Ex.1 twice weekly scheme, wk 9, 1.5 mg sc
  Cmax: 78.3 nM
1.5 mg, Ex.1 weekly scheme 1, wk 5, 1.5 mg sc, read-out: AUC0-168 (gMean)
  AUC(0-t): 4.49 µM·h
1.5 mg, Ex.1 weekly scheme 1, wk 5, 1.5 mg sc
  Cmax: 37.8 nM
1.6 mg, Ex.1 weekly scheme 2, wk 4, 1.6 mg sc, read-out: AUC0-168 (gMean)
  AUC(0-t): 5.13 µM·h
1.6 mg, Ex.1 weekly scheme 2, wk 4, 1.6 mg sc
  Cmax: 44.3 nM
1.8 mg, Ex.1 twice weekly scheme, wk 11, 1.8 mg sc, read-out: AUC0-72 (gMean)
  AUC(0-t): 5.69 µM·h
1.8 mg, Ex.1 twice weekly scheme, wk 11, 1.8 mg sc
  Cmax: 93.6 nM
1.8 mg, Ex.1 weekly scheme 1, wk 6, 1.8 mg sc, read-out: AUC0-168 (gMean)
  AUC(0-t): 5.53 µM·h
1.8 mg, Ex.1 weekly scheme 1, wk 6, 1.8 mg sc
  Cmax: 45.5 nM
1.8 mg, Ex.1 weekly scheme 3, wk 4, 1.8 mg sc, read-out: AUC0-168 (gMean)
  AUC(0-t): 5.2 µM·h
1.8 mg, Ex.1 weekly scheme 3, wk 4, 1.8 mg sc
  Cmax: 46.5 nM
1.8 mg, Ex.1 weekly scheme 4, wk 11, 1.8 mg sc, read-out: AUC0-168 (gMean)
  AUC(0-t): 8.16 µM·h
1.8 mg, Ex.1 weekly scheme 4, wk 11, 1.8 mg sc
  Cmax: 69.9 nM
